Peptide text beside a SMILES is read from it. * marks the point of attachment. MeOSuc = COC(=O)CCC(=O)*; Cbz = O=C(OCc1ccccc1)*; Boc = CC(C)(C)OC(=O)*; Bz = O=C(c1ccccc1)*
What was measured:
[1] = test system: fetal rat forearm bones (radius and ulna), bone resorption; assay: Bone resorption suppressing action (^45 Ca release from cultured fetal rat forearm bones, method of Raisz); format: cell-based, Sprague-Dawley rat; details: 48 h, cultured two days, control = no test compound, mean of five bone fragments, read-out: Bone Resorption Inhibitory Activity [^45 Ca Release Rate (Percent to Control)]; for activity at 10 µg/mL: Concentration of Compound 10 μg/ml; for activity at 10 µM: Concentration of Compound 10 μM
Source text: Specifically, one Sprague-Dawley rat, at 18 days of gestation, was given 50 μCi of ^45 Ca (calcium isotope, in CaCl2 solution) by subcutaneous injection. On the following day, the animal was laparotomized and fetal rats aseptically removed. Both forearm bones (radius and ulna) were cut out from the body of each fetus under an anatomical microscope, and connective tissue and cartilages were removed to the maximum possible extent, to prepare bone culture samples. Each bone fragment was pre-cultured at 37° C. for 24 hours in 0.6 ml of BGJb medium (Fitton-Jackson modification, GIBCO Laboratories, United States) prepared by adding bovine serum albumin (final concentration 2 mg/ml), after which it was transferred to the same medium as above but containing each compound (final concentration 10 μg/ml or 10 μM) and cultured for two more days. ^45 Ca radioactivity in the medium and ^45 Ca radioactivity in the bone were then measured, and the percent ratio of ^45 Ca released from the bone to the medium was calculated using the following equation: [formula]
For control, bone fractions from fetuses of the same litter were cultured for two days in the absence of the test compound. The mean q standard deviation for the values from five bone fragments in each group were calculated, and their percent ratios to the control were calculated.

human cathepsin L = biological target: T1, human cathepsin L (Homo sapiens, UniProt P07711); assay: Determination of human cathepsin L inhibitory activity (recombinant enzyme, Z-Phe-Arg-NMec substrate); format: biochemical; details: pH 5.5, 30° C., 10 minutes
T1 construct: made in house; host or cells: mouse myeloma Sp2/0 cells stably transformed with pTBN-HCLneo (Sp-HCL26); purified from serum-free culture supernatant on CM-Sephadex C-50 and Mono S
T1 sequence (P07711 114-333): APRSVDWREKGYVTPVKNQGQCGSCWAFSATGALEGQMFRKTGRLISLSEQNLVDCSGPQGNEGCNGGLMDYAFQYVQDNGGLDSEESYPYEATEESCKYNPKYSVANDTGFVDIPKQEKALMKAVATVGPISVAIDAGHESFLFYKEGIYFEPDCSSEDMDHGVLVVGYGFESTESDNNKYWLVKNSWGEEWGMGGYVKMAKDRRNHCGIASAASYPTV
Protocol: This fraction was applied to a Mono S column (HR5/5) of an FPLC system (produced by Pharmacia), followed by column washing and human cathepsin L elution in the same manner as above.
Experimental Example 8: Determination of human cathepsin L inhibitory activity
The recombinant human cathepsin L purified in Experimental Example 7 was diluted with a diluent [0.1% Brij 35 (produced by Sigma Chemical Company)] to a concentration of 1 μg/ml. To 1 μl of this enzyme dilution, 46 μl of the diluent, 2 μl of 0.1M DTT and 25 μl of an activator/buffer (340 mM sodium acetate, 60 mM acetic acid, 4 mM disodium EDTA, pH 5.5) were added. To this mixture were added a 1 μl sample, diluted to 10^-2 M with dimethyl sulfoxide (DMSO), and 25 μl of 20 μM Z-Phe-Arg-NMec (enzyme substrate solution), followed by incubation at 30° C. for 10 minutes, after which 100 μl of a reaction stopper (100 mM sodium monochloroacetate, 30 mM sodium acetate, 70 mM acetic acid, pH 4.3) was added. This reaction was carried out on a 96-well fluoroplate (produced by Labo Systems).
After the reaction was stopped, the fluorescence intensity of free aminomethylcoumarin was determined at a wavelength of 450 nm (excitation wavelength=365 nm), using a fluorometer FCA (produced by Baxter). For a control, 1 μl of sample-free DMSO was added instead; the fluorometric value obtained from this control reaction was taken as 100% activity.

SMILES | IC50 (human cathepsin L) [nM] | activity at 10 µg/mL [1] [%] | activity at 10 µM [1] [%]
CC[C@H](C)[C@H](NS(=O)(=O)c1cccc2ccccc12)C(=O)N[C@H](CO)Cc1c[nH]c2ccccc12 [Example 3, N-(1-naphthylsulfonyl)-(L)-isoleucyl-(L)-tryptophanol] | – | 49 | –
O=C(N[C@H](CO)Cc1c[nH]c2ccccc12)C(Cc1ccccc1)Cc1ccccc1 [Example 26, N-dibenzylacetyl-(L)-tryptophanol] | – | – | 79
CC(C)[C@H](NC(=O)c1ccccc1)C(=O)N[C@H](CO)Cc1c[nH]c2ccccc12 [Example 38] | – | – | 76
CC[C@H](C)[C@H](NC(=O)OCc1ccccc1)C(=O)N[C@H](CO)Cc1cn(C(C)(C)C)c2ccccc12 [Example 59] | – | – | 67
Cc1ccc(CC(Cc2ccccc2)C(=O)N[C@H](CO)Cc2c[nH]c3ccccc23)cc1 (stereo partly shown) [Example 84] | – | – | 74
CC[C@H](C)[C@H](NS(=O)(=O)c1cccc2ccccc12)C(=O)N[C@H](C=O)Cc1c[nH]c2ccccc12 [Example 103, N-(1-naphthylsulfonyl)-(L)-isoleucyl-(L)-tryptophanal] | – | 49 | –
C[C@H](NS(=O)(=O)c1cccc2ccccc12)C(=O)N[C@H](C=O)Cc1c[nH]c2ccccc12 [Example 124] | – | – | 79
CC(C)[C@H](NC(=O)c1ccccc1)C(=O)N[C@H](C=O)Cc1c[nH]c2ccccc12 [Example 134] (Bz-Val-Trp-aldehyde) | – | – | 66
CC(C)C[C@H](NC(=O)c1ccccc1)C(=O)N[C@H](C=O)Cc1c[nH]c2ccccc12 [Example 143] | 1.7 | – | –
CC[C@H](C)[C@H](NC(=O)OC(C)(C)C)C(=O)N[C@H](C=O)Cc1cn(C)c2ccccc12 [Example 150] | 6.1 | – | –
CC[C@H](C)[C@H](NS(=O)(=O)c1cccc2ccccc12)C(=O)N[C@@H](C)C=O [Example 153, N-(1-naphthylsulfonyl)-(L)-isoleucylalanal] | – | – | 74
CC[C@H](C)[C@H](NC(=O)OCc1ccccc1)C(=O)N[C@H](C=O)Cc1ccc(OC(C)C)cc1 [Example 157] | – | – | 72
CC[C@H](C)[C@H](NS(=O)(=O)c1cccc2ccccc12)C(=O)N[C@H](C=O)Cc1ccc(O)cc1 [Example 158] | – | – | 65
CCOP(=O)(Cc1ccc(NC(=O)C(Cc2ccccc2)C(=O)N[C@H](C=O)Cc2c[nH]c3ccccc23)cc1)OCC (stereo partly shown) [Example 188] | 37 | – | –
CC[C@H](C)[C@H](NC(=O)c1cc(=O)c2ccccc2o1)C(=O)N[C@H](C=O)Cc1c[nH]c2ccccc12 [Example 193] | 3.9 | – | –

More lines, main results first:

IC50 (human cathepsin L) [nM] | SMILES | activity at 10 µg/mL [1] [%] | activity at 10 µM [1] [%]
11 | CC[C@H](C)[C@H](NC(=O)OCc1ccccc1)C(=O)N[C@H](C=O)Cc1c[nH]c2ccccc12 [Example 107] | – | –
5.4 | CC[C@H](C)[C@H](NC(=O)OCc1ccccc1)C(=O)N[C@H](C(=O)N[C@H](C=O)Cc1c[nH]c2ccccc12)[C@@H](C)CC [Example 108, N-(benzyloxycarhonyl)-(L)-isoleucyl-(L)-isoleucyl-(L)-tryptophanal] (Cbz-Ile-Ile-Trp-aldehyde) | 42 | –
10 | CC[C@H](C)[C@H](NC(=O)OC(C)(C)C)C(=O)N[C@H](C(=O)N[C@H](C=O)Cc1c[nH]c2ccccc12)[C@@H](C)CC [Example 109] (Boc-Ile-Ile-Trp-aldehyde) | 38 | –
16 | CC[C@H](C)[C@H](NC(=O)[C@@H](NS(=O)(=O)c1cccc2ccccc12)[C@@H](C)CC)C(=O)N[C@H](C=O)Cc1c[nH]c2ccccc12 [Example 110, N-(1-naphthylsulfonyl)-(L)-isoleucyl-(L)-isoleucyl-(L)-tryptophanal] | 46 | –
14 | CC[C@H](C)[C@H](NC(=O)CCC(=O)OC)C(=O)N[C@H](C(=O)N[C@H](C=O)Cc1c[nH]c2ccccc12)[C@@H](C)CC [Example 111] (MeOSuc-Ile-Ile-Trp-aldehyde) | 32 | –
380 | CC[C@H](C)[C@H](NC(=O)OCCC12CC3CC(CC(C3)C1)C2)C(=O)N[C@H](C(=O)N[C@H](C=O)Cc1c[nH]c2ccccc12)[C@@H](C)CC [Example 112] | 43 | –
48 | CC[C@H](C)[C@H](NC(=O)NCCC1CCCCC1)C(=O)N[C@H](C=O)Cc1c[nH]c2ccccc12 [Example 115, N-[(2-cyclohexylethyl)carbamoyl]-(L)-isoleucyl-(L)-tryptophanal] | – | –
220 | CC[C@H](C)[C@H](NC(=O)[C@@H](NS(=O)(=O)c1cccc2ccccc12)[C@@H](C)CC)C(=O)NC(C=O)Cc1cccc2ccccc12 (stereo partly drawn) [Example 118, N-(1naphthylsulfonyl)-(L)-isoleucyl-(L)-isoleucyl-(DL)-(1-naphthyl)alaninal] | – | –
32 | O=C[C@H](Cc1c[nH]c2ccccc12)NC(=O)C(Cc1ccccc1)Cc1ccccc1 [Example 122, N-dibenzylacetyl-(L)-tryptophanal] | – | 73
19 | O=C[C@H](Cc1c[nH]c2ccccc12)NC(=O)[C@H](Cc1ccccc1)NC(=O)c1ccccc1 [Example 128] (Bz-Phe-Trp-aldehyde) | – | 73
85 | CCCC(Sc1ccccc1)C(=O)N[C@H](C=O)Cc1c[nH]c2ccccc12 (stereo partly shown) [Example 129] | – | –
0.99 | CC(C)[C@H](NC(=O)OCc1ccccc1)C(=O)N[C@H](C=O)Cc1c[nH]c2ccccc12 [Example 132] (Cbz-Val-Trp-aldehyde) | – | 74
1 | CCCC(CCC)C(=O)N[C@H](C(=O)N[C@H](C=O)Cc1c[nH]c2ccccc12)C(C)C [Example 135, N-(2-propylpentanoyl)-(L)-valyl-(L)-tryptophanal] | – | 45
2.4 | CCCC(CCC)C(=O)N[C@@H](CC(C)C)C(=O)N[C@H](C=O)Cc1c[nH]c2ccccc12 [Example 144] | – | 60
0.95 | CC[C@H](C)[C@H](NS(=O)(=O)c1cccc2ccccc12)C(=O)N[C@H](C=O)Cc1ccccc1 [Example 154, N-(1-naphthylsulfonyl)-(L)-isoleucyl-(L)-phenylalaninal] | – | –
43 | CC[C@@H](C=O)NC(=O)C(Cc1ccccc1)Cc1ccccc1 [Example 167] | – | –
26 | CC(C)[C@@H](C=O)NC(=O)C(Cc1ccccc1)Cc1ccccc1 [Example 168] | – | –
19 | CC(C)C[C@H](NS(=O)(=O)c1cccc2ccccc12)C(=O)N[C@@H](Cc1c[nH]c2ccccc12)C(=O)NCC=O [Example 175] | – | –
55 | O=C[C@H](Cc1c[nH]c2ccccc12)NC(=O)C(Cc1ccccc1)C(=O)N(Cc1ccccc1)Cc1ccccc1 (stereo partly shown) [Example 190] | – | –
4.7 | O=C[C@H](Cc1c[nH]c2ccccc12)NC(=O)C(Cc1ccccc1)C(=O)NCc1ccccc1 (stereo partly shown) [Example 191] | – | –
4.2 | O=C[C@H](Cc1c[nH]c2ccccc12)NC(=O)C(c1ccccc1)c1ccccc1 [Example 192] | – | –

From patent US5955491A, “Method for treating osteoporosis” (Takeda Chemical Industries, Ltd., priority 1993, dated 1999)
